Experimental data as given in PMC10580383, “Development of Melanocortin 4 Receptor Agonists by Exploiting Animal-Derived Macrocyclic, Disulfide-Rich Peptide Scaffolds” (ACS Pharmacology & Translational Science, 2023).
Where a SMILES comes first, the peptide text is derived from it. Bridges are numbered along the chain shown (N, C = ends). [ ]: non-standard residue; d: D form.

Experiments:
Test in all cases: pGlo cAMP accumulation assay
Assay type in all cases: cell-based
[1] = system: human MC4R; conditions: cells transiently expressing human MC4R, 1 and 10 μM, three independent experiments in technical triplicate
Description: (§1) Following functional analysis at MC4R, we were intrigued to know how selective Pr4LP1 and Ar3LP1 were for MC4R vs other melanocortin receptors.
(§2) Figure 6 Selectivity determination of Pr4LP1 and Ar3LP1 peptides at MC4R vs MC1R and MC3R. […] Data (not normalized) are represented as mean ± SEM from three independent experiments performed in technical triplicate.
(§3) Cells transiently expressing human MC1R, MC3R, or MC4R were incubated for 24 h. Afterward all contents of each well were carefully removed, and cells were then equilibrated in cAMP buffer [1× HBSS, 24 mM HEPES, 0.1% (w/v) BSA, 3.96 mM NaHCO3, 1 mM MgSO4, 1.3 mM CaCl2 dihydrate], supplemented with firefly D-luciferin free acid (0.45 mg/mL) (NanoLight Technology). 90 μL of cAMP buffer was added to all wells, and the 96-well plate was then incubated (28 °C, 1 h). Bioluminescence was measured using the CLARIOstar Plus Plate Reader (BMG LabTech). Prior to injecting the treatment ligands, approximately 5–10 basal readings were performed until stabilization was reached. Peptide ligands (10 μL) were added to the well. Bioluminescence was measured for a total of 30 cycles (1 min per cycle, 1 s integration time, without filter, a fixed gain of 3000, and autofocus).

[2] = system: human MC3R; conditions: cells transiently expressing human MC3R, up to 10 μM, three independent experiments in technical triplicate
Description: as §1, §2, §3

[3] = system: human MC1R; conditions: cells transiently expressing human MC1R, up to 10 μM, three independent experiments in technical triplicate
Description: as §1, §2, §3

Structure (SMILES)	cAMP response at MC4R (RLU) [1]	cAMP response at MC3R (RLU) [2]	cAMP response at MC1R (RLU) [3]
CC(C)[C@@H]1NC(=O)[C@H](Cc2ccc(O)cc2)NC(=O)[C@H](Cc2c[nH]c3ccccc23)NC(=O)[C@@H](NC(=O)[C@H](Cc2ccccc2)NC(=O)CN)CSSC[C@@H](C(=O)N[C@@H](CC(N)=O)C(N)=O)NC(=O)[C@H](CCCNC(=N)N)NC(=O)[C@H](CCCNC(=N)N)NC(=O)[C@H](Cc2ccc(O)cc2)NC(=O)[C@@H]2CSSC[C@H](NC1=O)C(=O)N1CCC[C@H]1C(=O)N[C@@H](Cc1c[nH]cn1)C(=O)N[C@H](Cc1ccccc1)C(=O)N[C@@H](Cc1c[nH]cn1)C(=O)N[C@@H](Cc1c[nH]c3ccccc13)C(=O)N2 [Ar3LP1] (H-GFCWYVCPH[dF]HWCYRRCN-NH2; disulfide 3-17, 7-13)	activate the receptor	no response	no response
CC(C)C[C@H](NC(=O)[C@H](CCCNC(=N)N)NC(=O)CNC(=O)CNC(=O)[C@@H](N)CCCNC(=N)N)C(=O)N[C@H]1CSSC[C@@H](C(=O)N[C@H](C(=O)NCC(=O)N[C@@H](CCCNC(=N)N)C(N)=O)C(C)C)NC(=O)[C@H](Cc2ccccc2)NC(=O)[C@@H]2CSSC[C@H](NC(=O)[C@H](Cc3ccc(O)cc3)NC1=O)C(=O)N1CCC[C@H]1C(=O)N[C@@H](Cc1c[nH]cn1)C(=O)N[C@H](Cc1ccccc1)C(=O)N[C@@H](Cc1c[nH]cn1)C(=O)N[C@@H](Cc1c[nH]c3ccccc13)C(=O)N2 [Pr4LP1] (H-RGGRLCYCPH[dF]HWCFCVGR-NH2; disulfide 6-16, 8-14)	activate the receptor	no response	no response
